How the values were obtained:
CYP26B1 = biological target: T1, CYP26B1 (Homo sapiens, UniProt Q9NR63); assay: U2OS cell-based inhibitor assay (endogenous CYP26B1); parameters: This assay used a human cell type endogenously expressing the CYP26B1 enzyme; endogenous in cells; host or cells: U2OS, pre-treated with 1 µM RA for 24 hours; details: U2OS cells pre-treated with 1 µM RA for 24 hours; Figure 4
T1 sequence (Q9NR63 1-512): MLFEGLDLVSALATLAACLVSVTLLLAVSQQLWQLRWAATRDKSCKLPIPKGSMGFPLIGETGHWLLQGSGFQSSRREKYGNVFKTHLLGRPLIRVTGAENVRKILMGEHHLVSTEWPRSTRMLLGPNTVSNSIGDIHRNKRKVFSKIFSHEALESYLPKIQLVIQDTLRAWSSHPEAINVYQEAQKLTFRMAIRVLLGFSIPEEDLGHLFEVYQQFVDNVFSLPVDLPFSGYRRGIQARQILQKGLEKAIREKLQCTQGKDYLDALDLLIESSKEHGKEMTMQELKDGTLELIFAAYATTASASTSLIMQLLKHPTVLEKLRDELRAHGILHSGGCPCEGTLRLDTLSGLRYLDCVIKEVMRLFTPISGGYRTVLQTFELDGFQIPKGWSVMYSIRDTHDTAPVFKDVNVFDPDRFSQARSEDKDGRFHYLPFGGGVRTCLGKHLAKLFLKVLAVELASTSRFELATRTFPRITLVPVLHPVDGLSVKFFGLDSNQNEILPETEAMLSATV
Description: This assay used a human cell type endogenously expressing the CYP26B1 enzyme to test the ability of a compound to block RA metabolism. U2OS cells were grown in McCoy's 5A medium containing 10% fetal bovine serum (FBS) and 1X antibiotic/antimycotic cocktail. Cells grown in a T-175 culture flask at […] were treated with 1 µM RA for 24 hours to induce the expression of the CYP26B1 gene prior to the assay. Following this treatment period, cells were collected by trypsinization, washed twice in PBS, and resuspended in 7 ml of fresh culture medium. These cells were then re-plated in 48-well plates, and the assay was carried out as described for the HeLa-cell based assay.

[1] = tested on: growth plates of juvenile FVB mice; assay: Long bone growth and growth plate toxicity in juvenile mice; details: for Mean femur length (cm) / Mean tibia length (cm): oral gavage, P14-P41, juvenile FVB mice; for Mean modified Crural index: ratio of tibia over femur length
Description: A preclinical study was used to evaluate toxicity of various doses of compound 1 versus palovarotene on the growth plates of juvenile FVB mice following once daily (QD) or twice (BID) administration by oral gavage, over the juvenile development period, for 4 weeks (postnatal days 14-42 (P14-P42)). […] Resultant DICOM files were rendered in the RadiAnt viewer to obtain long bone measurements using the program's measuring tool (Figure 8A).

Question: What does the source list for CC(C)(C)c1cccc(-c2cc3cc(/C=C/C(=O)O)ccc3[nH]2)c1 [Compound 1, (E)-3-(2-(3-(tert-butyl)phenyl)-1H-indol-5-yl)acrylic acid]?
Answer: IC50 (CYP26B1): 1.9 nM; Mean femur length (cm) ([1]; 3mg/kg BID): 1.38 ± 0.03 cm; Mean tibia length (cm) ([1]; 3mg/kg BID): 1.69 ± 0.04 cm; Mean modified Crural index ([1]; 3mg/kg BID): 1.23 ± 0.03; Mean femur length (cm) ([1]; 6mg/kg BID): 1.33 ± 0.11 cm; Mean tibia length (cm) ([1]; 6mg/kg BID): 1.53 ± 0.05 cm; Mean modified Crural index ([1]; 6mg/kg BID): 1.15 ± 0.05; Mean femur length (cm) ([1]; 10mg/kg BID): 1.34 ± 0.06 cm; Mean tibia length (cm) ([1]; 10mg/kg BID): 1.70 ± 0.04 cm; Mean modified Crural index ([1]; 10mg/kg BID): 1.27 ± 0.06; Mean femur length (cm) ([1]; 18mg/kg QD): 1.10 ± 0.09 cm; Mean tibia length (cm) ([1]; 18mg/kg QD): 1.54 ± 0.07 cm; Mean modified Crural index ([1]; 18mg/kg QD): 1.40 ± 0.06; disturbances to the growth of long bones and microarchitecture of the growth plates ([1]; at doses at least equally efficacious as palovarotene, Figures 8A, 8B, 9): not observed

From patent EP4470536A1, “COMPOUND FOR USE IN TREATING FIBRODYSPLASIA OSSIFICANS PROGRESSIVA (FOP)” (Queen's University At Kingston, priority 2023, dated 2024)
